# Results taken from patent US5830855A, “Lipodepsipeptides as antifungal and fungicidal agents” (priority 1996, dated 1998).
# Numbered stars: 1 amine (or outer) side, 2 acyl side, 3 side chain; on linkers, the order of the positions; unused ones are H or OH. Bridge positions count the residues as written; N and C are the ends. Square brackets hold non-standard residues; d marks the D form. Peptide text beside a SMILES is read from it. * marks the point of attachment. ξ: configuration not given here. Asp(3S-OH) = N[C@H](C(=O)O)[C@H](O)C(=O)O; Thr(4-Cl) = N[C@H](C(=O)O)[C@H](O)CCl; ξAsp(3ξ-OH) = NC(C(=O)O)C(O)C(=O)O; X3 = O=C(C(N[*:1])C(O)CCl)[*:2]; X1 = CCCCCCCCC[C@@H](O)CC(=O)*; X2 = CCCCCCCCCCCC(O)CC(=O)*; dDab = NCC[C@@H](N)C(=O)O; Dab = NCC[CH](N)C(=O)O; Orn = NCCC[CH](N)C(=O)O; hSer = N[CH](CCO)C(=O)O; Dhb = C/C=C(\N)C(=O)O
# Key:
# Mucor spp. = experiment: Broth microdilution MIC; format: cell-based; conditions: Table 1 (MICs), 5 isolates, 48 hr
# Method: (§1) Medium: Liquid RPMI 1640 (RPMI) medium with L-glutamine and without sodium bicarbonate (Sigma Chemical Co., R-6504; St. Louis, Mo.) buffered with 0.165M MOPS (34.54 g/liter) was used for in vitro antifungal tests. The medium was adjusted to pH 7.0 with 10M NaOH and filter sterilized.
# Lipodepsipeptide Dilutions: All stock drug solution concentrations were at least 10-fold higher than the highest concentration tested. AmB, ketoconazole, and the test compounds (SR-E, ST-B, and SS-A) were dissolved in sterile distilled water, 0.2N HCl, and 0.001N HCl, respectively. Each stock solution was diluted to 2× the highest concentration of drug tested with RPMI. Two-fold dilutions were made with RPMI medium.
# Preparation of Inoculum Suspensions: On Sabouraud dextose agar (SDA; BBL, Becton and Dickinson and Co., Cockeysville, Md.) all isolates were subcultured at least twice before use to ensure purity and viability. Candida spp. and Saccharomyces cerevisiae were grown for 24 hr at 35° C. Isolates of Cryptococcus neoformans were grown for 48 hr at 35° C. Yeast cells from at least five 1-mm-diameter colonies were suspended in 5 ml of sterile 0.85% saline. The resulting suspension was vortexed for 15 sec. The turbidity of each mixed suspension was measured at 530 nm and adjusted to 1×10^6 to 5×10^6 CFU/ml by the NCCLS spectrophotometric method described by National Committee for Clinical Laboratory Standards. 1992. Reference method for broth dilution antifungal susceptibility testing of yeasts; proposed standard, NCCLS document M27-P (ISBN 1-56238-186-5). NCCLS, Villanova. The final transmission of each yeast suspension ranged from 85-87%.
# Aspergillus fumigatus and Mucor spp. were grown for 1 wk at 35° C. The dermatophytes, Microsporum spp. and Trichophyton spp., were grown for two wk at 30° C. Fungal spores were washed from the plates of all good spore formers (A. fumigatus, Mucor spp., Microsporum canis and Trichophyton spp.) by placing 5 ml of 0.85% saline with 0.2% Tween 80 on the plates and mixing with an inoculating loop. The spore/mycelium suspension was drawn off with a pipette and allowed to settle for at least 5 min. For the poor spore-forming Microsporum audouinii, the procedure was the same except the spore/mycelial suspension was homogenized with a ground glass tissue homogenizer and then allowed to settle for at least 5 min. A small amount of the supernatant was transferred to 5 ml of sterile saline and vortexed. The stock suspensions of all filamentous fungi were measured at 530 nm and adjusted to 85-87% transmission. The concentration (1×10^6 to 5×10^6 CFU/ml) was determined by hemacytometer count or plate count on SDA. All stock suspensions were diluted 1000-fold with RPMI, or 2× the final desired test inocula. The 2× inoculum was diluted 1:1 when the wells were inoculated, and the desired inoculum size was achieved.
# Broth Microdilution Test: Broth microdilution tests were performed using sterile, disposable, multiwell microdilution plates (96 round U-bottom wells) (Falcon 3077; Becton and Dickinson Labware, Lincoln Park, N.J.). The drugs (2× concentrations) were dispensed into the wells of rows number 1 to 10 of the microdilution plates in 100 μl volumes from highest drug concentration to lowest drug concentration. Each well was inoculated with 100 μl of the corresponding 2× concentrated fungal suspension. The wells of row 11 contained the inoculum with drug-free media as a positive growth control and the wells of row 12 contained uninoculated-drug-free medium as a sterility control.
# Incubation and Scoring of MIC: All cultures were incubated without shaking at the temperature used during subculture. Incubation times were 48 hr for Candida spp., S. cerevisiae, A. fumigatus, and Mucor spp; 72 hr for C. neoformans; and 7 days for Microsporum and Trichophyton spp. […]
# [1] = test system: clinical isolates (fungi); experiment: Broth microdilution MIC, fungal isolates overall; format: cell-based; conditions: summary range over the fungi tested
# Description: Most of the fungal strains used in the tests were clinical isolates obtained from the University of Texas Health Science Center at San Antonio Fungus Testing Laboratory (San Antonio, Tex.) and the remaining isolates were ATCC strains.
# as §1
# Lipodepsipeptide Dilutions: All stock drug solution concentrations were at least 10-fold higher than the highest concentration tested. […]
# Preparation of Inoculum Suspensions: On Sabouraud dextose agar (SDA; BBL, Becton and Dickinson and Co., Cockeysville, Md.) all isolates were subcultured at least twice before use to ensure purity and viability. […] The turbidity of each mixed suspension was measured at 530 nm and adjusted to 1×10^6 to 5×10^6 CFU/ml by the NCCLS spectrophotometric method described by National Committee for Clinical Laboratory Standards. […]
# Aspergillus fumigatus and Mucor spp. were grown for 1 wk at 35° C. […] The stock suspensions of all filamentous fungi were measured at 530 nm and adjusted to 85-87% transmission. The concentration (1×10^6 to 5×10^6 CFU/ml) was determined by hemacytometer count or plate count on SDA. […]
# [2] = test system: monoclonal antibody to CD3 (anti-CD3)-induced lymphocyte proliferation; experiment: anti-CD3-induced lymphocyte proliferation ([3H]-thymidine incorporation); format: cell-based, human
# Method: (§2) Lipodepsipeptide for Immunosuppression Experiments: SR-E was purified as previously described in Bidwai, A. P., Bachmann, R. C. and Takemoto, J. Y., "Mechanism of action of Pseudomonas syringae phytotoxin syringomycin". Plant Physiol. 83:39-43 (1987). A stock solution (10 mg per ml) was prepared in RPMI1640 culture media, aliquoted and stored frozen at -20°.
# (§3) Lymphocyte stimulation: Lymphocyte stimulation was performed with three different mitogens: phytohemagglutinin (PHA), pokeweed mitogen (PWM), and monoclonal antibody to CD3 (anti-CD3). […]
# (§4) Mitogen-induced lymphocyte proliferation: Peripheral blood mononuclear cells (MNC) (containing lymphocytes and monocytes) were separated by Ficoll-Hypaque density-gradient centrifugation using techniques well known in the art. Mitogen-induced lymphocyte proliferation was determined as previously described in Singh, V. K., "Stimulatory effect of corticotropin-releasing neurohormone on human lymphocyte proliferation and interleukin-2 receptor expression". […]
# (§5) [^3 H]-thymadine Incorporation: Cells were pulse-labeled for 4 hours with 0.5 μCi/well of [^3 H]methyl-thymidine (spec. act.=25 Ci/mmol from Amersham Intl.). […] To each vial, 2 ml of CytoScint fluid (ICN Biomedicals) was dispensed and the radioactivity determined using a liquid scintillation counter (Tri-Carb, Packard). […]
# [3] = test system: phytohemagglutinin (PHA)-induced lymphocyte proliferation; experiment: PHA-induced lymphocyte proliferation ([3H]-thymidine incorporation); format: cell-based, human
# Method: as §2, §3, §4, §5
# [4] = test system: lymphocytes (peripheral blood mononuclear cells); experiment: Lymphocyte proliferation in the absence of mitogens ([3H]-thymidine incorporation); format: cell-based, human; conditions: SR-E at concentrations of 5.72 μM and lower; FIG. 3
# Method: as §2
# as §4, with “expression". J.Neuroimmunol.23.257-262 (1989). Briefly, MNC were cultured in triplicate in 96-well microtiter plates (Corning, Inc.).” for “expression".”
# [^3 H]-thymadine Incorporation: Cells were pulse-labeled for 4 hours with 0.5 μCi/well of [^3 H]methyl-thymidine (spec. act.=25 Ci/mmol from Amersham Intl.). […] To each vial, 2 ml of CytoScint fluid (ICN Biomedicals) was dispensed and the radioactivity determined using a liquid scintillation counter (Tri-Carb, Packard). The rate of [^3 H]-thymidine incorporation by MNC was calculated as counts per minute per 10 ^5 cells.
SMILES,MIC range (Mucor spp.),antifungal activity (overall range) [1],significant inhibition of anti-CD3 response ([2]; 1.14 μM),"suppression of anti-CD3 response ([2]; 5.72 μM, p=0.02)",significant inhibition of PHA response ([3]; 1.14 μM),"suppression of PHA response ([3]; 5.72 μM, p=0.026)",effect on cell proliferation in the absence of mitogens ([3H]-thymidine incorporation) [4]
"C/C=C1\NC(=O)C(C(C)O)NC(=O)C(CCCN)NC(=O)C(CCO)NC(=O)CNC(=O)C(CCN)NC(=O)C(NC(=O)CC(O)CCCCCCCCCCC)COC(=O)C(C(O)CCl)NC(=O)C(C(O)C(=O)O)NC1=O (stereo not shown) [ST-B, Syringotoxin B] (X2-S[Dab]G[hSer][Orn]T[Dhb][ξAsp(3ξ-OH)][X3]; ester 1-C; configuration not given here)",6.25 to 100 mg/L,0.8 to 200 g/mL,–,–,–,–,–
"C/C=C1\NC(=O)[C@H](Cc2ccccc2)NC(=O)[C@H](CCCN=C(N)N)NC(=O)[C@@H](CCN)NC(=O)[C@H](CCN)NC(=O)[C@@H](CO)NC(=O)[C@@H](NC(=O)C[C@H](O)CCCCCCCCC)COC(=O)[C@H]([C@H](O)CCl)NC(=O)[C@H]([C@H](O)C(=O)O)NC1=O [SR-E, Syringomycin-E] (X1-S[dS][Dab][dDab]RF[Dhb][Asp(3S-OH)][Thr(4-Cl)]; ester 1-C)",–,–,not,30%,not,25%,no effect
